Values after ≈ are worked out from the molar mass of the structure shown. Read-outs that look alike come from different tables or passages of the source.
Legend:
Format in all cases: cell-based
[1] = tested on: Botrtyis cinerea (Bc); assay: In vitro pathogen growth inhibition assay, Bc; conditions: 48 h
Method in brief: (§1)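 Value reported is the compound concentration reaching ≥90% growth inhibition, from OD readings at 24 and 48 h after blank subtraction, confirmed visually. Inoculum was spores diluted in 17% V8 medium, except Rs, using 1.5 mm mycelial plugs in ¼ PDB; actual compound concentration corrected via OD600.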

[2] = tested on: Collectotrichum graminicola (Cg); assay: In vitro pathogen growth inhibition assay, Cg; conditions: 48 h
Method in brief: as §1

[3] = tested on: Diplodia maydis (Dm); assay: In vitro pathogen growth inhibition assay, Dm; conditions: Stenocarpella maydis, 48 h
Method in brief: (§2)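 Spores of Dm, Fv and Pc were diluted in 17% V8 liquid medium; Rs used 1.5 mm mycelial plugs in ¼ PDB. Compounds from 2.5 mg/ml DMSO stocks were combined with inoculum, growth was read by OD600 at 24 and 48 h with blank subtraction, and the reported value is the concentration giving ≥90% inhibition.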

[4] = tested on: Fusarium moniliforme (Fm); assay: In vitro pathogen growth inhibition assay, Fm; conditions: Fusarium verticillioides
Method in brief: as §1

[5] = tested on: Fusarium virguliforme (Fv); assay: In vitro pathogen growth inhibition assay, Fv
Method in brief: as §2

[6] = tested on: Phytophthora capsici (Pc); assay: In vitro pathogen growth inhibition assay, Pc; conditions: 48 h
Method in brief: as §2

[7] = tested on: Rhizoctonia solani (Rs); assay: In vitro pathogen growth inhibition assay, Rs (mycelial plugs); conditions: Rhizoctonia solani, 48 h
Method in brief: as §2

[8] = tested on: Septoria tritici (St); assay: In vitro pathogen growth inhibition assay, St; conditions: Zymoseptoria tritici, 48 h
Method in brief: as §1

[9] = concentration sufficient to ≥90% inhibition of growth, 48 hours vs 2% DMSO control, read-out: Compound Concentration (ppm) for ≥90% inhibition, Bc
[10] = concentration sufficient to ≥90% inhibition of growth, 48 hours vs 2% DMSO control, read-out: Compound Concentration (ppm) for ≥90% inhibition, Cg
[11] = concentration sufficient to ≥90% inhibition of growth, 48 hours vs 2% DMSO control, read-out: Compound Concentration (ppm) for ≥90% inhibition, Dm
[12] = concentration sufficient to ≥90% inhibition of growth, 48 hours vs 2% DMSO control, read-out: Compound Concentration (ppm) for ≥90% inhibition, Fm
[13] = concentration sufficient to ≥90% inhibition of growth, 48 hours vs 2% DMSO control, read-out: Compound Concentration (ppm) for ≥90% inhibition, Fv
[14] = concentration sufficient to ≥90% inhibition of growth, 48 hours vs 2% DMSO control, read-out: Compound Concentration (ppm) for ≥90% inhibition, Pc
[15] = concentration sufficient to ≥90% inhibition of growth, 48 hours vs 2% DMSO control, read-out: Compound Concentration (ppm) for ≥90% inhibition, Rs
[16] = concentration sufficient to ≥90% inhibition of growth, 48 hours vs 2% DMSO control, read-out: Compound Concentration (ppm) for ≥90% inhibition, St
[17] = ≥90% growth inhibition, 48 hours, vs 2% DMSO control, read-out: Compound Concentration (ppm) sufficient for ≥90% inhibition of Bc
[18] = ≥90% growth inhibition, 48 hours, vs 2% DMSO control, read-out: Compound Concentration (ppm) sufficient for ≥90% inhibition of Cg
[19] = ≥90% growth inhibition, 48 hours, vs 2% DMSO control, read-out: Compound Concentration (ppm) sufficient for ≥90% inhibition of Dm
[20] = ≥90% growth inhibition, 48 hours, vs 2% DMSO control, read-out: Compound Concentration (ppm) sufficient for ≥90% inhibition of Fm
[21] = ≥90% growth inhibition, 48 hours, vs 2% DMSO control, read-out: Compound Concentration (ppm) sufficient for ≥90% inhibition of Fv
[22] = ≥90% growth inhibition, 48 hours, vs 2% DMSO control, read-out: Compound Concentration (ppm) sufficient for ≥90% inhibition of Pc
[23] = ≥90% growth inhibition, mycelial plugs, 48 hours, vs 2% DMSO control, read-out: Compound Concentration (ppm) sufficient for ≥90% inhibition of Rs
[24] = ≥90% growth inhibition, 48 hours, vs 2% DMSO control, read-out: Compound Concentration (ppm) sufficient for ≥90% inhibition of St

SMILES	IC90 [1, 9] [µg/mL]	IC90 [2, 10] [µg/mL]	IC90 [3, 11] [µg/mL]	IC90 [4, 12] [µg/mL]	IC90 [5, 13] [µg/mL]	IC90 [6, 14] [µg/mL]	IC90 [7, 15] [µg/mL]	IC90 [8, 16] [µg/mL]	IC90 [1, 17] [µg/mL]	IC90 [2, 18] [µg/mL]	IC90 [3, 19] [µg/mL]	IC90 [4, 20] [µg/mL]	IC90 [5, 21] [µg/mL]	IC90 [6, 22] [µg/mL]	IC90 [7, 23] [µg/mL]	IC90 [8, 24] [µg/mL]
COc1ccc(F)cc1[C@@H](Cn1c(=O)n(C(C)(C)C(=O)NC(C)C)c(=O)c2c(C)c(-n3nccn3)sc21)OCCCO [Compound I-320]	50 (≈ 83 µM)	> 50	> 50	50 (≈ 83 µM)	50 (≈ 83 µM)	> 50	> 50	> 50	–	–	–	–	–	–	–	–
CCOC(=O)c1sc2c(c1C)c(=O)n(C(C)(C)C(=O)NC(C)C)c(=O)n2C[C@H](OCC(C)(C)C#N)c1cc(F)ccc1OC [Compound I-321]	–	–	–	–	–	–	–	–	0.4 (≈ 0.634 µM)	0.4 (≈ 0.634 µM)	≥ 0.4	0.08 (≈ 0.127 µM)	0.4 (≈ 0.634 µM)	> 50	2 (≈ 3.17 µM)	> 50
COc1ccc(F)cc1[C@@H](Cn1c(=O)n(C(C)(C)C(=O)NC(C)C)c(=O)c2c(C)c(-n3nccn3)sc21)OC(C)=O [Compound I-322]	10 (≈ 17 µM)	> 50	> 50	10 (≈ 17 µM)	≥ 10	> 50	> 50	> 50	–	–	–	–	–	–	–	–
CCNC(=O)C(C)(C)n1c(=O)c2c(C)c(-n3nccn3)sc2n(C[C@H](OC(C)=O)c2cc(F)ccc2OC)c1=O [Compound I-324]	–	–	–	–	–	–	–	–	2 (≈ 3.49 µM)	10 (≈ 17.5 µM)	10 (≈ 17.5 µM)	0.4 (≈ 0.699 µM)	2 (≈ 3.49 µM)	> 50	2 (≈ 3.49 µM)	> 50
COc1ccc(F)cc1[C@H](Cn1c(=O)n(C(C)(C)C(=O)NC(C)C)c(=O)c2c(C)c(CO)sc21)OCCC#N [Compound I-325]	–	–	–	–	–	–	–	–	50 (≈ 89.2 µM)	> 50	> 50	2 (≈ 3.57 µM)	50 (≈ 89.2 µM)	> 50	> 50	> 50
CCc1ccc(F)cc1CCn1c(=O)n(C(C)(C)C(=O)NC(C)C)c(=O)c2c(C)c(-n3nccn3)sc21 [Compound I-326]	–	–	–	–	–	–	–	–	2 (≈ 3.8 µM)	2 (≈ 3.8 µM)	2 (≈ 3.8 µM)	0.08 (≈ 0.152 µM)	0.08 (≈ 0.152 µM)	> 50	10 (≈ 19 µM)	> 50
Cc1c(-n2nccn2)sc2c1c(=O)n(C(C)(C)C(=O)NC(C)C)c(=O)n2CCc1cc(F)ccc1CCCC#N [Compound I-328]	–	–	–	–	–	–	–	–	2 (≈ 3.54 µM)	10 (≈ 17.7 µM)	2 (≈ 3.54 µM)	0.4 (≈ 0.707 µM)	0.4 (≈ 0.707 µM)	> 50	10 (≈ 17.7 µM)	> 50

Now from value to molecule:

IC90 [1, 9] [µg/mL]	IC90 [2, 10] [µg/mL]	IC90 [3, 11] [µg/mL]	IC90 [4, 12] [µg/mL]	IC90 [5, 13] [µg/mL]	IC90 [6, 14] [µg/mL]	IC90 [7, 15] [µg/mL]	IC90 [8, 16] [µg/mL]	IC90 [1, 17] [µg/mL]	IC90 [2, 18] [µg/mL]	IC90 [3, 19] [µg/mL]	IC90 [4, 20] [µg/mL]	IC90 [5, 21] [µg/mL]	IC90 [6, 22] [µg/mL]	IC90 [7, 23] [µg/mL]	IC90 [8, 24] [µg/mL]	SMILES
–	–	–	–	–	–	–	–	10 (≈ 19 µM)	50 (≈ 94.8 µM)	50 (≈ 94.8 µM)	2 (≈ 3.79 µM)	2 (≈ 3.79 µM)	> 50	50 (≈ 94.8 µM)	> 50	COc1ccc(F)cc1CCn1c(=O)n(C(C)(C)C(=O)NC(C)C)c(=O)c2c(C)c(-n3cccn3)sc21 [Compound I-329]
–	–	–	–	–	–	–	–	2 (≈ 3.34 µM)	10 (≈ 16.7 µM)	> 50	0.08 (≈ 0.134 µM)	0.08 (≈ 0.134 µM)	> 50	10 (≈ 16.7 µM)	> 50	Cc1c(-n2nccn2)sc2c1c(=O)n(C(C)(C)C(=O)NC(C)C)c(=O)n2CCc1cc(F)ccc1OC1CCOCC1 [Compound I-331]
–	–	–	–	–	–	–	–	> 50	> 50	> 50	2 (≈ 3.31 µM)	2 (≈ 3.31 µM)	> 50	> 50	> 50	Cc1c(-n2nccn2)sc2c1c(=O)n(C(C)(C)C(=O)NC(C)C)c(=O)n2CCc1cc(F)ccc1OCc1ccccc1 [Compound I-332]
–	–	–	–	–	–	–	–	2 (≈ 3.54 µM)	2 (≈ 3.54 µM)	10 (≈ 17.7 µM)	0.4 (≈ 0.708 µM)	10 (≈ 17.7 µM)	50 (≈ 88.5 µM)	2 (≈ 3.54 µM)	> 50	COc1ccccc1[C@H](Cn1c(=O)n([C@H](C)C(=O)NC(C)C)c(=O)c2c(C)c(-n3cccn3)sc21)OCCC#N [Compound I-333]
> 50	> 50	> 50	50 (≈ 79.9 µM)	> 50	> 50	> 50	> 50	–	–	–	–	–	–	–	–	CC(=O)Oc1ccc(F)cc1[C@@H](Cn1c(=O)n(C(C)(C)C(=O)NC(C)C)c(=O)c2c(C)c(-n3nccn3)sc21)OCCC#N [Compound I-334]
